Assay results reported in article PMC10246557, “Kinetic and inhibition studies on human Jumonji-C (JmjC) domain-containing protein 5” (RSC Chemical Biology, 2023).
Several values for one entry are separate records, joined by “and”; a condition that tells them apart may be missing. Identical values can stand only once. Like-named read-outs stand apart in the source and are kept apart here.

What was measured:
human JMJD5 [1] = target: T1, human JMJD5 (Homo sapiens, UniProt Q8N371); assay: SPE-MS JMJD5 inhibition assay; type: biochemical; settings: for IC50 / IC50 JMJD5: 2OG 2.0 μM, Fe(II) 2.0 μM, LAA 100 μM, RPS6_128–148 2.0 μM
T1 construct: made in house; host or cells: Escherichia coli BL21(DE3)
Procedure: Solutions of the small-molecules (100% DMSO) were dry dispensed across 384 well polypropylene V-bottom assay microplates (Greiner) in an approximately three-fold and 11-point dilution series (100 μM inhibitor top concentration; the final DMSO assay concentration was kept constant at 0.5%v/v) using an ECHO 550 acoustic dispenser (Labcyte). […] Each reaction was performed in technical duplicates in adjacent wells of the assay plates; additionally, assays were performed in two independent duplicates on different days using different inhibitor solutions.
The Enzyme Mixture (25 μL per well), containing 0.3 μM His6-thioredoxin-tagged JMJD5 in buffer (50 mM MOPS, pH 7.5), was dispensed across the inhibitor-containing 384-well plates with a multidrop dispenser (ThermoFischer Scientific) at 20 °C under an ambient atmosphere. The plates were subsequently centrifuged (1000 rpm, 5 s) and incubated for 15 min at 20 °C. […] The plates were centrifuged (1000 rpm, 5 s) and, after incubating for 30 min, the enzyme reaction was stopped by the addition of 10%v/v aqueous formic acid (5 μL per well). The plates were then centrifuged (1000 rpm, 30 s) and analyzed by MS.
Z′-Factors were calculated according to the cited literature using Microsoft Excel.[61]

human AspH = settings: absence of 2OG; AspH 0.1 μM, 2OG derivative 330 μM, Fe(II) 50 μM, hFX-CP101–119 2.0 μM; cited from earlier work
human KDM4E [2] = target: T2, human KDM4E (Homo sapiens, UniProt B2RXH2); assay: KDM4E SPE-MS inhibition assay; type: biochemical; settings: KDM4E 0.15 μM, peptide 10.0 μM, LAA 100 μM, FAS 10 μM, 2OG 10 μM
T2 sequence (B2RXH2 1-506): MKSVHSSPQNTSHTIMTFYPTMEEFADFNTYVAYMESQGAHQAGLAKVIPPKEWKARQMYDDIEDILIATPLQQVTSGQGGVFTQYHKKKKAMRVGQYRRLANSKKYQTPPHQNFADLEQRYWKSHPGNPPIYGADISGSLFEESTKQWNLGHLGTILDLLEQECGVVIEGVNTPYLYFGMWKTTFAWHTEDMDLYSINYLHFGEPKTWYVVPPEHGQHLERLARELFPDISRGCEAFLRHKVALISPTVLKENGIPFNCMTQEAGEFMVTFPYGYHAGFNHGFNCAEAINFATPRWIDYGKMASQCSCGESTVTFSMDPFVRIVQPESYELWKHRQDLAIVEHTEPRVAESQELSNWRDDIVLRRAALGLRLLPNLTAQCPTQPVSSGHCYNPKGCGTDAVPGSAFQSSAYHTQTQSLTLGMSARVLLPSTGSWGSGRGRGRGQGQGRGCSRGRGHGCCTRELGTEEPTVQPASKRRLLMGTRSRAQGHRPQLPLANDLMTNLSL
Procedure: KDM4E turnover and inhibition assays were performed as reported using recombinant human KDM4E and a histone 3 K9(me3) derivative (i.e. […](me3)STGGIA)[41] as substrate.[95] […]

human KDM4E [3] = target: T2, human KDM4E; assay: KDM4E SPE-MS turnover and kinetic assay (H3 K9(me3) peptide demethylation); type: biochemical; settings: absence of 2OG; KDM4E 0.15 μM, 2OG derivative 330 μM, Fe(II) 50 μM, ARTAQTARK(me3)STGGIA 10.0 μM
Procedure: KDM4E turnover and inhibition assays were performed as reported using recombinant human KDM4E and a histone 3 K9(me3) derivative (i.e. […](me3)STGGIA)[41] as substrate.[95]
Supplementary Figure S3. Rates of KDM4E-catalyzed Nε-trimethyl lysine demethylations of a histone 3- […]
Maximum velocities (vapp ) and Michaelis […]
catalyzed Nε-trimethyl lysine demethylation of the histone 3 K9(me3)-derived peptide […]
(me3)STGGIA2 by SPE-MS as described;3 note that mono-, di-, and tri-demethylated product […]
buffer (50 mM MES, pH 7.0, 20 °C). Measurement times were normalized to the first sample injection analyzed […]
(§1) Data are shown as the mean of three independent runs (n = 3; mean ± SD).
(a) Time course of the KDM4E-catalyzed Nε-trimethyl lysine demethylation reaction of the […]

human JMJD5 [4] = target: T1, human JMJD5; assay: SPE-MS JMJD5 turnover and kinetic assay (RPS6_128–148 hydroxylation); type: biochemical; settings: for JMJD5 (%): RPS6_128–148 hydroxylation with the compound as cosubstrate: absence of 2OG, JMJD5 0.15 μM, 2OG derivative 400 μM, Fe(II) 20 μM, RPS6_128–148 2.0 μM
Procedure: JMJD5 turnover assays for time course and kinetic experiments were performed in 96-well polypropylene assay plates (Greiner) with either […] total reaction volume using the concentrations given in the manuscript or ESI, ^† and JMJD5-catalysed substrate hydroxylation was directly monitored using SPE-MS. […] Assay samples were aspirated under vacuum for 0.6 s and loaded onto a C4 solid phase extraction (SPE) cartridge. After loading, the C4 SPE cartridge was washed with 0.1%v/v aqueous formic acid to remove non-volatile buffer salts (5.5 s, 1.5 mL min^−1). The peptide was eluted from the SPE cartridge with 0.1%v/v aqueous formic acid in 80/20v/v acetonitrile/water into the mass spectrometer (5.5 s, 1.5 mL min^−1) and the SPE cartridge re-equilibrated with 0.1%v/v aqueous formic acid (0.5 s, 1.5 mL min^−1). The mass spectrometer was operated using the MassHunter Workstation B.08.00 software (Agilent), the mass spectrometer parameters were: capillary voltage (4000 V), nozzle voltage (1000 V), fragmentor voltage (365 V), gas temperature (280 °C), gas flow (13 L min^−1), sheath gas temperature (350 °C), sheath gas flow (12 L min^−1). […] Data were exported into Microsoft Excel and used to calculate the % conversion of the hydroxylation reaction using the equation: % conversion = 100 × (integral product peptide)/(integral substrate peptide + integral product peptide).
parameters (continues on the following two pages). Maximum velocities (vapp ) and Michaelis constants (Kapp)
of JMJD5 were determined in independent triplicates, monitoring the JMJD5-catalyzed hydroxylation of the
SPE-MS, as described (Experimental Section).
20 °C). Measurement times were normalized to the first sample injection analyzed after the addition of JMJD5 to
shown as the mean of three independent runs (n = 3; mean ± standard deviation, SD).
hexahydrate (20 μM, (NH4)2Fe(SO4)2·6H2O); and (b) hydroxylation rates used to determine kinetic parameters of
(1 picture or pasted object on this page, not shown here)
Maximum velocities (vapp ) and
Michaelis constants (Kapp) of JMJD5 were determined in independent triplicates for (1R)-3-
(carboxycarbonyl)cyclopentane-1-carboxylic acid (14), monitoring the JMJD5-catalyzed hydroxylation of the
as described (Experimental Section).
pH 7.5, 20 °C). Measurement times were normalized to the first sample injection analyzed after the addition of
as §1
to determine kinetic parameters of JMJD5 for 14.

human FIH = settings: absence of 2OG; FIH 0.15 μM, 2OG derivative 330 μM, Fe(II) 50 μM, HIF-1α788–822 5.0 μM; cited from earlier work
[5] = JMJD5 0.15 μM, read-out: IC50 JMJD5

T1 sequence (Q8N371 whole entry): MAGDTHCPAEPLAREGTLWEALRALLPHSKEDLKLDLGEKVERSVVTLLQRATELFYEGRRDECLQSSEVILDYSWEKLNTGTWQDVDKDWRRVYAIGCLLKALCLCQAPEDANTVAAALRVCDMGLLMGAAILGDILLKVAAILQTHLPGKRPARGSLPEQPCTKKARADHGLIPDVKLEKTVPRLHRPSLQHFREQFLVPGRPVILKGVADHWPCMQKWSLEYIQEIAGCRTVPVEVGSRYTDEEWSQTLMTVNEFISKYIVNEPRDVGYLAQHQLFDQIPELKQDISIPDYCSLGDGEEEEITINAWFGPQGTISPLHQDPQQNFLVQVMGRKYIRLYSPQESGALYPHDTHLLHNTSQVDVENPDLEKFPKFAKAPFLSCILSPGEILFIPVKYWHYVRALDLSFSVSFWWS

| Compound | IC50 (human JMJD5 [1]; [5]) [µM] | KDM4E (%): substrate demethylation with the compound as cosubstrate (human KDM4E [3]) | JMJD5 (%): RPS6_128–148 hydroxylation with the compound as cosubstrate (human JMJD5 [4]) | AspH (%): substrate hydroxylation with the compound as cosubstrate (human AspH) [%] | FIH (%): substrate hydroxylation with the compound as cosubstrate (human FIH) | other results |
| --- | --- | --- | --- | --- | --- | --- |
| CN(C)NC(=O)CCC(=O)O [daminozide, reference compound] |  |  |  |  |  | IC50 (human JMJD5 [1]; IC50 JMJD5, JMJD5 0.15 μM): > 100 µM |
| O=C(O)CNC(=O)c1c(O)c2ccccc2n(OCC2CC2)c1=O [C00037, reference compound] |  |  |  |  |  | IC50 (human JMJD5 [1]; IC50 JMJD5, JMJD5 0.15 μM): 37.2 ± 6 µM |
| CC1(C)c2ccccc2-c2ccc(CC(CC(=O)O)C(=O)C(=O)O)cc21 (stereo not shown) [Entry 7] |  | < 1% | < 1% | < 1 | < 1% | IC50 (human KDM4E [2]): 6 to 7 µM and ~6.1 µM |
| O=C(O)CNC(=O)C(=O)O [C00025] | 0.15 ± 0.02 |  |  |  |  |  |
| O=C(O)C(=O)N[C@H](Cc1ccccc1)C(=O)O [NOFD, N-Oxalyl-D-phenylalanine, reference compound] |  |  |  |  |  | IC50 JMJD5 (human JMJD5 [1]; JMJD5 0.15 μM): does not inhibit JMJD5 in the concentration range tested |
| 4-propyl-2OG [2OG derivative 11] | > 50 | < 1% | ~ 10% | < 1 | ~ 5% | IC50 (human KDM4E [2]): > 50 µM |
| CC(CC(=O)C(=O)O)C(=O)O (stereo not shown) [Entry 8] |  | < 1% | < 1% | < 1 | < 1% | IC50 (human KDM4E [2]): 6 to 7 µM and ~6.6 µM; JMJD5-catalyzed RPS6_128–148 hydroxylation, time course (human JMJD5 [4]; after 50 min, 10 μM cosubstrate, 0.15 μM JMJD5, 10 μM Fe(II), 2.0 μM RPS6_128–148): ~30% |
| O=C(O)CNC(=O)C(=O)O [NOG, N-oxalylglycine, reference compound] | ~0.2 |  |  |  |  |  |
| CN(C)CCCNC(=O)c1ccc(-c2cc(O)c3ncccc3c2)cc1 [ML324, reference compound] |  |  |  |  |  | Hill coefficient of the JMJD5 inhibition curve (human JMJD5 [1]): ≥ 2 |
| O=C(O)CCNc1cc(N2CCc3ccccc3CC2)nc(-c2ccccn2)n1 [GSK-J1, reference compound] | ~4.4 |  |  |  |  |  |
| Cc1nc(C(=O)NCC(=O)O)c(O)c2ccc(Oc3ccccc3)cc12 [roxadustat, reference compound] |  |  |  |  |  | IC50 JMJD5 (human JMJD5 [1]; JMJD5 0.15 μM): does not inhibit JMJD5 at substantial levels |
| 3-(9,9-dimethyl-9H-fluoren-2-yl)methyl-2OG [2OG derivative 7] | > 50 | < 1% | < 1% | < 1 | < 1% |  |
| O=c1c2ccccc2[se]n1-c1ccccc1 [ebselen, reference compound] | ~0.7 |  |  |  |  | Hill coefficient of the JMJD5 inhibition curve (human JMJD5 [1]): ≥ 2 |
| 3-(4-methoxybenzyl)-2OG [2OG derivative 6] | > 50 | ~ 5% | ~ 10% | < 1 | < 1% | IC50 (human KDM4E [2]): > 50 µM |
| 3-ethyl-2OG [2OG derivative 2] | > 20 | < 1% | < 1% | < 1 | ~ 2% | IC50 (human KDM4E [2]): > 50 µM |
| O=C(O)c1ccc(O)c2ncccc12 [C00029] |  |  |  |  |  | IC50 (human JMJD5 [1]; IC50 JMJD5, JMJD5 0.15 μM): 2.6 ± 0.1 µM |

Continued, in another order:

| IC50 (human JMJD5 [1]; [5]) [µM] | KDM4E (%): substrate demethylation with the compound as cosubstrate (human KDM4E [3]) | JMJD5 (%): RPS6_128–148 hydroxylation with the compound as cosubstrate (human JMJD5 [4]) | Compound | AspH (%): substrate hydroxylation with the compound as cosubstrate (human AspH) [%] | FIH (%): substrate hydroxylation with the compound as cosubstrate (human FIH) | other results |
| --- | --- | --- | --- | --- | --- | --- |
| > 100 |  |  | O=C(O)C(=O)N[C@H](Cc1ccccc1)C(=O)O [C00030] |  |  |  |
| 29.5 ± 1.6 |  |  | O=c1c(-n2ccnn2)c[nH]n1-c1cc(N2CCOCC2)ncn1 [C00039, reference compound] |  |  |  |
| 17.8 ± 5.6 |  |  | O=C(O)CNC(=O)c1c(O)c2ccccc2n(Cc2ccccc2)c1=O [C00035, reference compound] |  |  |  |
| 3 ± 0.5 |  |  | CN(C)CCCNC(=O)c1ccc(-c2cc(O)c3ncccc3c2)cc1 [C00034] |  |  |  |
| 4.4 ± 0.5 |  |  | O=C(O)CCNc1cc(N2CCc3ccccc3CC2)nc(-c2ccccn2)n1 [C00036] |  |  |  |
| 0.69 ± 0.15 |  |  | O=c1c2ccccc2[se]n1-c1ccccc1 [C00031] |  |  |  |
|  | <1% | <1% | CCC(CC(=O)O)C(=O)C(=O)O (stereo not shown) [C00005] | <1 | ∼2% |  |
|  | <1% | <1% | O=C(O)C(=O)c1cccc(C(=O)O)c1 [C00016] | <1 | <1% |  |
|  | <1% | <1% | CCCC(CC(=O)O)C(=O)C(=O)O (stereo not shown) [C00007] | <1 | <1% |  |
|  | <1% | <1% | CC1(C)c2ccccc2-c2ccc(CC(CC(=O)O)C(=O)C(=O)O)cc21 (stereo not shown) [C00015] | <1 | <1% |  |
